Test results reported in ChEMBL document CHEMBL1134953, “Two selective novel triterpene glycosides from sea cucumber, Telenata Ananas: inhibitors of chemokine receptor-5” (Bioorg Med Chem Lett, 2002).

Target: C-C chemokine receptor type 5 (Homo sapiens, UniProt P51681)
Assay: Inhibitory activity against human CCR5 chemokine receptor (CCR5) expressed in CHO cells
Format: cell-based

Chain of C-C chemokine receptor type 5 (P51681 whole entry): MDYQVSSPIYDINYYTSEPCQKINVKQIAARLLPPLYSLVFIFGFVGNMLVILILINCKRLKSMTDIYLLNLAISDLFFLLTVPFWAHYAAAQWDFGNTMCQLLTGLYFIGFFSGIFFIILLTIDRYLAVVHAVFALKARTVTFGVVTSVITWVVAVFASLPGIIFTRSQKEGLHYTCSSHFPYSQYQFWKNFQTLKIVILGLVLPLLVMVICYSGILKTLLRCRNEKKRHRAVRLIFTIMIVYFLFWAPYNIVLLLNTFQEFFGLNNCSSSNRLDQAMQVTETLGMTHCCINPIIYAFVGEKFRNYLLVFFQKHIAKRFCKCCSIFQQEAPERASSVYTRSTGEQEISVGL

Compound	Ki [µM]
C[C@H]1O[C@@H](O[C@H]2[C@H](O[C@H]3CC[C@]4(C)C5=C[C@H](O)C67C(=O)O[C@@](C)(C8CCC(C)(C)O8)[C@@]6(O)CC[C@@]7(C)C5CCC4C3(C)C)OC[C@@H](O[C@@H]3O[C@H](CO)[C@@H](O)[C@H](O)[C@H]3O)[C@@H]2O)[C@H](O)[C@@H](O)[C@@H]1O (some centres not stated)	30
COC1[C@@H](O)C(OC2[C@@H](O)[C@H](O[C@H]3[C@H](O)[C@@H](O)[C@H](O[C@H]4[C@H](O[C@H]5CC[C@]6(C)C7=C[C@H](O)C89C(=O)O[C@@](C)(CCCC(C)C)C8CC[C@@]9(C)C7CCC6C5(C)C)OC[C@@H](O[C@@H]5O[C@H](CO)[C@@H](O)[C@H](OC6O[C@H](CO)[C@@H](O)[C@H](OC)[C@H]6O)[C@H]5O)[C@@H]4O)O[C@@H]3C)O[C@H](CO)[C@H]2O)O[C@H](CO)[C@H]1O (some centres not stated)	5.1
